Laboratory results from PMC5571287 (Antimicrobial Agents and Chemotherapy, 2017).
Where two headings read alike, the source gives them in different places.

What was measured:
[1] = tested on: RSV B WST; test: CPE assay, RSV B Washington in HEp-2 cells (resazurin); type: cell-based, respiratory syncytial virus; settings: human respiratory syncytial virus, HEp-2
[2] = tested on: RSV A 1997/12-35; test: CPE 1, resazurin 384-well CPE assay in HEp-2; type: cell-based; settings: human respiratory syncytial virus
Protocol: (§1) For known clinical strains (RSV A 1997/12-35, 2001/2-20, 200/3-4, and Memphis 37), a 384-well-format resazurin-based CPE assay was conducted.

[3] = tested on: RSV A 2000/3-4; test: CPE 1, resazurin 384-well CPE assay in HEp-2; type: cell-based; settings: human respiratory syncytial virus
Protocol: as §1

[4] = tested on: RSV A 2001/2-20; test: CPE 1, resazurin 384-well CPE assay in HEp-2; type: cell-based; settings: human respiratory syncytial virus
Protocol: as §1

[5] = tested on: RSV A Memphis 37c; test: CPE 1, resazurin 384-well CPE assay in HEp-2; type: cell-based; settings: human respiratory syncytial virus
Protocol: as §1

[6] = tested on: RSV B 9320; test: CPE assay in HEp-2 cells (resazurin); type: cell-based; settings: human respiratory syncytial virus
[7] = tested on: RSVA 492; test: microbe, parasite or virus in culture; type: cell-based; settings: human respiratory syncytial virus, RSVA 492, clinical
[8] = tested on: RSVB 1000; test: microbe, parasite or virus in culture; type: cell-based; settings: human respiratory syncytial virus, RSVB 1000, clinical, 3 parameter curve fit
[9] = tested on: RSV A Long; test: microbe, parasite or virus in culture; type: cell-based, respiratory syncytial virus
[10] = tested on: PIV3 (C243 strain); test: organism not typed; type: cell-based, parainfluenza virus 3; settings: PIV3, LLC-MK2 7.1
[11] = tested on: Hepatitis C virus GT1b replicon; test: microbe, parasite or virus in culture; type: cell-based
[12] = tested on: Herpes simplex virus 1 (HF strain); test: microbe, parasite or virus in culture; type: cell-based; settings: Herpes simplex virus 1, Vero
[13] = tested on: RSV A2; test: RSV A2-infected BALB/c mice, virus load in lung homogenate; type: in vivo
[14] = target: RSV RdRp activity in crude RSV A L-P complex (Human respiratory syncytial virus A, UniProt P28887); test: biochemical; settings: read-out: RdRp activity IC90
[15] = tested on: RSV A2 protein expression; test: Western blotting of RSV proteins in RSV A2-infected HEp-2 cells; type: cell-based, respiratory syncytial virus; settings: HEp-2, 3 days postinfection
Protocol: HEp-2 cells were seeded in 6-well plates at a density of 3 × 10^5/well (2 ml/well) 24 h before experimentation and were then treated with compounds (10 μl/well), simultaneously infected with RSV A2 (MOI, 1), and incubated for 72 h. Cells were washed with PBS and collected by scraping in 200 μl of PBS with protease and phosphatase inhibitor cocktail (PPI; Sigma-Aldrich; MSSAFE-1VL 1× in PBS), followed by two further washes with 200 μl of PBS, and the cell suspension was centrifuged to pellet. Radioimmunoprecipitation assay (RIPA) buffer (50 μl) containing 50 mM Tris-HCl (pH 7.4), 150 mM NaCl, 1% (vol/vol) NP-40, 0.25% (wt/vol) sodium deoxycholate, and PPI was applied to the cell pellet, which was vortexed and incubated for 30 min, on ice with further cell disruptions every 10 min. The protein concentration of the supernatant after centrifugation was determined by Bradford assay. The lysate containing 30 μg of protein was separated by electrophoresis on a 4 to 12% gradient bis-Tris polyacrylamide gel (Life Technologies; NP0335BOX) and then transferred to a nitrocellulose membrane using the iBlot gel transfer device (Life Technologies). The membrane was blocked with blocking buffer (TBS/T; 20 mM TBS and 0.1% Tween 20 with 5% skim milk) for 1 h at RT and incubated with anti-RSV F protein antibody (Abcam ab43812; 1:1,000) overnight at 4°C for F protein detection. […]

[16] = tested on: human mitochondrial polymerase; test: Human polymerase inhibition in vitro (data not shown); type: biochemical; settings: up to 1 μM
[17] = in vitro; settings: rhesus monkey
[18] = in vitro; settings: African green monkey
[19] = tested on: RSV A2; settings: human respiratory syncytial virus
[20] = tested on: RSVB 1276; settings: human respiratory syncytial virus
[21] = tested on: RSVB 1262; settings: human respiratory syncytial virus
[22] = tested on: RSVB 1000; settings: human respiratory syncytial virus
[23] = intranasal 0.2 mg/ml (0.19 mg/kg)
[24] = HEp-2, read-out: RSV titre in supernatant IC50 (0.3 Log PFUe reduction) (converted)
[25] = HEp-2, read-out: RSV titre in supernatant IC90 (1 Log PFUe reduction) (converted)

Chain of RSV RdRp activity in crude RSV A L-P complex (P28887 whole entry): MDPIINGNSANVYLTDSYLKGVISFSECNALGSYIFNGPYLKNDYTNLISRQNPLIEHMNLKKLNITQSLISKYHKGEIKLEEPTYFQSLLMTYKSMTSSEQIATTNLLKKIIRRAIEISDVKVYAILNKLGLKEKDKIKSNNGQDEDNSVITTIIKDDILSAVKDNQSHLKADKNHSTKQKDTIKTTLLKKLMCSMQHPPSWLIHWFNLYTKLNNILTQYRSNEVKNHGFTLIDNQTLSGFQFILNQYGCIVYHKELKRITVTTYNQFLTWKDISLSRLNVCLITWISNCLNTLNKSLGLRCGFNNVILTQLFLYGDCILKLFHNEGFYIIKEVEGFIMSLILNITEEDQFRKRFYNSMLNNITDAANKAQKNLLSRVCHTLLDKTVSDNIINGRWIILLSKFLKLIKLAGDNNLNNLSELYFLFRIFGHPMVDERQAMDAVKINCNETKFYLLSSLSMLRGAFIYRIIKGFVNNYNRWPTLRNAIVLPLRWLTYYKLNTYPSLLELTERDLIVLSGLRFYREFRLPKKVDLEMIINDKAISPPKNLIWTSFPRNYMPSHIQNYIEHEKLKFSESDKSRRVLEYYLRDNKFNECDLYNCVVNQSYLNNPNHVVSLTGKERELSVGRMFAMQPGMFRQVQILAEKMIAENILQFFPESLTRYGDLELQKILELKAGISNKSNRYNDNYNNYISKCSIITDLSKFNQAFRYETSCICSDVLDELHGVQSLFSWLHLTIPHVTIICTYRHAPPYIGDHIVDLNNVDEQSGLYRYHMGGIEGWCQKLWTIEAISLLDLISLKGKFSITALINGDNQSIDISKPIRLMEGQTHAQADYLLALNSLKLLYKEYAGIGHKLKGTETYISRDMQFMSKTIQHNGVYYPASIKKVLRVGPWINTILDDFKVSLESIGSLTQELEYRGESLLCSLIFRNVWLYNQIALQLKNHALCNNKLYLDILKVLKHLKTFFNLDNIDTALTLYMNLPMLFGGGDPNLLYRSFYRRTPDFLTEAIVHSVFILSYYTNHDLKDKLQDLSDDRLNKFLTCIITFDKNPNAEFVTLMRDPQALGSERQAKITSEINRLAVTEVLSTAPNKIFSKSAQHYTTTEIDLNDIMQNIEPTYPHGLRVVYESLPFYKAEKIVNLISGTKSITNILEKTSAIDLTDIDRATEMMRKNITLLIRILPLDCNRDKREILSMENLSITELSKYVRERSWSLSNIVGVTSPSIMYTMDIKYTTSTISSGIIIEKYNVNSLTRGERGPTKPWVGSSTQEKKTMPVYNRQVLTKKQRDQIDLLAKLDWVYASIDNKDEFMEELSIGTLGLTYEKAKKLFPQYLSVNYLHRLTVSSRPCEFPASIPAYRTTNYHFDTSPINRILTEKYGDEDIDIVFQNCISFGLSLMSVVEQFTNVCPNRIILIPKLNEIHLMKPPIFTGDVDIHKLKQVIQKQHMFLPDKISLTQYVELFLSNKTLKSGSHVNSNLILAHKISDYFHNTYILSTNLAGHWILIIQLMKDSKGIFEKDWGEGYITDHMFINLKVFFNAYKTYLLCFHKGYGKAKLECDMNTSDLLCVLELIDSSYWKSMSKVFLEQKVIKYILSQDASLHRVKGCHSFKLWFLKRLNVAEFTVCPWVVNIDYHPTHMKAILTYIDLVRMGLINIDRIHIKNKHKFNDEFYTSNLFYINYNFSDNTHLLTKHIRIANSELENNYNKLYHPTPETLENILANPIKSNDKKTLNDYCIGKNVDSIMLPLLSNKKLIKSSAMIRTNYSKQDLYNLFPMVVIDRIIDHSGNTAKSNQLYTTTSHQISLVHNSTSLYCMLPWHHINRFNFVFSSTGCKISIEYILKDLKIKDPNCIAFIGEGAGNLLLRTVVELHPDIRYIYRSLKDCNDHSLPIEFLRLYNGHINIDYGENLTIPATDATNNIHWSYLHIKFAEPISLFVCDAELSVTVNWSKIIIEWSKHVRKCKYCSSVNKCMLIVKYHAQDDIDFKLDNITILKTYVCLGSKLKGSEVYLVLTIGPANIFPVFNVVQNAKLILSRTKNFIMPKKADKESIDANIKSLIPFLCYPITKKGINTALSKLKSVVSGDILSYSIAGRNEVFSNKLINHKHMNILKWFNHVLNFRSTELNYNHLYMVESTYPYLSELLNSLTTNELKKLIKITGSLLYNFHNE
Chain of RSV RdRp activity in crude RSV A L-P complex (P03421 whole entry, further chain): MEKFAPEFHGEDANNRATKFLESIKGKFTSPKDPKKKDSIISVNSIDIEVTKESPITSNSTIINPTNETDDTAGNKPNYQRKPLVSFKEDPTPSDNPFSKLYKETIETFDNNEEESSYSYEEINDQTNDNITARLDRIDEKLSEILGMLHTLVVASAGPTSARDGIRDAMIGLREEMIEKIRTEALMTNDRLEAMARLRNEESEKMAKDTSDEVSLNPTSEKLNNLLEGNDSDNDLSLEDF

Compound: Cc1cnc(N2CC3(CCOCC3)C2)c(C(=O)Nc2ccc(C(=O)N3CCc4cc(C(=O)Nc5c(C)cccc5F)sc4-c4ccccc43)cc2)c1 [PC786, N-(2-fluoro-6-methylphenyl)-6-(4-(5-methyl-2-(7-oxa-2-azaspiro[3.5]nonan-2-yl)nicotinamido)benzoyl)-5,6-dihydro-4H-benzo[b]thieno[2,3-d]azepine-2-carboxamide]
- IC50 [1]: 27.3 ± 0.77 nM
- IC90 [1]: 57.1 ± 3.87 nM
- IC50 [2]: 0.35 nM
- IC50 [3]: 0.14 nM
- IC50 [4]: 0.53 nM
- IC50 [5]: 0.5 nM
- IC50 [6]: 29.1 nM
- IC90 [6]: 64.3 nM
- IC50 ([7]; read-out: CPE IC50): 0.42 nM
- IC90 ([7]; read-out: CPE IC90): 0.57 nM
- IC50 ([8]; read-out: CPE IC50): 13.4 nM
- IC90 ([8]; read-out: CPE IC90): 342 nM
- IC90 or IC95 ([9]; HEp-2): <0.42 nM
- IC50 ([9]; human respiratory syncytial virus, HEp-2, plaque reduction, applied 2 h before infection): < 0.42 nM
- IC50 [10]: > 14000 nM
- IC90 or IC95 [10]: >14000 nM
- inhibition at 14 µM ([11]; GT1B, Huh-7, HCV replicon assay, at 14 μM, read-out: maximum inhibition achieved): 74%
- IC50 ([11]; Huh-7, GT1b replicon): 320 nM
- IC90 or IC95 ([11]; Huh-7, GT1b replicon): >14000 nM
- IC90 or IC95 [12]: >14000 nM
- IC50 ([12]; Human alphaherpesvirus 1): > 14000 nM
- Virus titer of lung homogenate, interquartile range [13, 23]: 1.9–3.0 log PFU/ml
- Virus titer of lung homogenate, median [13, 23]: 2.5 log PFU/ml
- Virus titer of lung homogenate, geometric mean ± SD ([13]; intranasal 0.2 mg/ml (0.19 mg/kg) once daily days −1 to 3): 2.4 ± 0.59 log PFU/ml
- Virus titer of lung homogenate, median ([13]; intranasal 2.0 mg/ml (1.9 mg/kg)): <0.33 (LOQ) log PFU/ml
- Virus titer of lung homogenate, median ([13]; intratracheal 2.0 mg/ml (3.2 mg/kg)): <0.33 (LOQ) log PFU/ml
- IC90 [14]: 21.8 nM
- concentration above which no or little G, N, P, M, M2-1, and F1 protein bands were visible [15]: greater than 14 nM
- inhibitory effects on human mitochondrial polymerase [16]: no measurable inhibitory effects
- CC50 [17]: > 14000 nM
- CC50 [18]: > 14000 nM
- IC50 ([19]; HEp-2, read-out: PCR IC50 (0.3 Log PFUe reduction) (converted)): 1.52 nM
- IC90 ([19]; HEp-2, read-out: PCR IC90 (1 Log PFUe reduction) (converted)): 1.69 nM
- IC50 [20, 24]: 15.1 nM
- IC90 [20, 25]: 22.5 nM
- IC50 [21, 24]: 9.36 nM
- IC90 [21, 25]: 12.3 nM
- IC50 [22, 24]: 10.3 nM
- IC90 [22, 25]: 12.4 nM
